# Source: patent US9474790B2, “Stable, protracted GLP-1/glucagon receptor co-agonists for medical use” (Novo Nordisk A/S, priority 2013, dated 2016)
# Numbered stars: 1 amine (or outer) side, 2 acyl side, 3 side chain; on linkers, the order of the positions; unused ones are H or OH. Square brackets hold non-standard residues; d marks the D form. Side chains are listed from the residue outwards. Peptide text beside a SMILES is read from it. * marks the point of attachment. C18 diacid = O=C(O)CCCCCCCCCCCCCCCCC(=O)*; γGlu = O=C(O)[C@H](CCC(=O)[*:2])N[*:1]; Ac4c = NC1(C(=O)O)CCC1; AEEA = NCCOCCOCC(=O)O; Aib = CC(C)(N)C(=O)O
# Target: T1, human glucagon receptor (Homo sapiens, UniProt P47871)
# T1 construct: expressed in transfected cells; host or cells: BHK cells (parent BHK570, CRE luciferase clone BHK/KZ10-20-48), clone pLJ6'-4-25
# Assay: Glucagon receptor binding, 125I-glucagon displacement SPA on isolated membranes
# Settings: displacement of 125I-glucagon from membranes; read-out: IC50 GlucR
# Procedure, shortened: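 Displacement IC50 derived by non-linear regression of SPA counts after 2 h, 25 °C incubation of compound with [125I]-glucagon (480 pM solution, 25 μl) and membranes of hGCGR-transfected BHK cells. Buffer was HEPES pH 7.4 with ovalbumin; serum albumin was held at 0.001% max or 0.2% final.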
# T1 sequence (P47871 26-477): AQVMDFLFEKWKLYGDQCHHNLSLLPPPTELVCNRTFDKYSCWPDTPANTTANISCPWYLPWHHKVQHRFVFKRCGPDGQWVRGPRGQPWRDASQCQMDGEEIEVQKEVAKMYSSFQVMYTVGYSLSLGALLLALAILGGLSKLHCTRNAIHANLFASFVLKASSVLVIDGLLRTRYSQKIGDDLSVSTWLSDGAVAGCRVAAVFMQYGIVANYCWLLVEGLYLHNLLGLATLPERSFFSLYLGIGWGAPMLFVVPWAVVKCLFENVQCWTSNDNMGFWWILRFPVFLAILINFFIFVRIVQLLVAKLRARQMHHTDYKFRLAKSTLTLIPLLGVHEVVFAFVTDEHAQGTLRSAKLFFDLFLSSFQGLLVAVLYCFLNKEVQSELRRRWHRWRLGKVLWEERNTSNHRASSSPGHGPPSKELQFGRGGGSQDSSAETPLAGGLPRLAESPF
row,SMILES,IC50 [nM]
1,"CC(C)C[C@H](NC(=O)[C@H](Cc1ccc(O)cc1)NC(=O)[C@H](CCCCN)NC(=O)[C@H](CO)NC(=O)[C@H](CC(C)C)NC(=O)[C@H](CC(=O)O)NC(=O)[C@H](CO)NC(=O)[C@@H](NC(=O)[C@H](Cc1ccccc1)NC(=O)[C@@H](NC(=O)CNC(=O)[C@H](CCC(N)=O)NC(=O)C(C)(C)NC(=O)[C@@H](N)Cc1c[nH]cn1)[C@@H](C)O)[C@@H](C)O)C(=O)N[C@@H](CCC(=O)O)C(=O)N[C@@H](CO)C(=O)N[C@@H](CCCNC(=N)N)C(=O)N[C@@H](CCCNC(=N)N)C(=O)N[C@@H](C)C(=O)N[C@@H](CCCNC(=N)N)C(=O)N[C@@H](CCC(=O)O)C(=O)N[C@@H](Cc1ccccc1)C(=O)N[C@H](C(=O)N[C@@H](CCC(N)=O)C(=O)N[C@@H](Cc1c[nH]c2ccccc12)C(=O)N[C@@H](CC(C)C)C(=O)N[C@@H](CC(C)C)C(=O)N[C@@H](CCCCNC(=O)CC[C@H](NC(=O)CC[C@H](NC(=O)CC[C@H](NC(=O)CCCCCCCCCCCCCCCCC(=O)O)C(=O)O)C(=O)O)C(=O)O)C(=O)N[C@H](C(N)=O)[C@@H](C)O)C(C)C [Example 41, N^ε28-[(4S)-4-carboxy-4-[[(4S)-4-carboxy-4-[[(4S)-4-carboxy-4-(17-carboxyheptadecanoylamino)butanoyl]amino]butanoyl]amino]butanoyl]-[Aib2,Leu10,Glu15, Arg20,Glu21,Leu27,Lys28]-Glucagon amide] (H-H[Aib]QGTFTSDLSKYLESRRAREFVQWLLK([γGlu-γGlu-γGlu-C18 diacid])T-NH2; N-terminus assumed)",1.2
2,"CC(C)C[C@H](NC(=O)[C@H](Cc1ccc(O)cc1)NC(=O)[C@H](CCCCN)NC(=O)[C@H](CO)NC(=O)[C@H](CC(C)C)NC(=O)[C@H](CC(=O)O)NC(=O)[C@H](CO)NC(=O)[C@@H](NC(=O)[C@H](Cc1ccccc1)NC(=O)[C@@H](NC(=O)CNC(=O)[C@H](CCC(N)=O)NC(=O)C(C)(C)NC(=O)[C@@H](N)Cc1c[nH]cn1)[C@@H](C)O)[C@@H](C)O)C(=O)N[C@@H](CCC(=O)O)C(=O)N[C@@H](CO)C(=O)N[C@@H](CCCNC(=N)N)C(=O)N[C@@H](CCCNC(=N)N)C(=O)N[C@@H](C)C(=O)N[C@@H](CCCNC(=N)N)C(=O)N[C@@H](CCC(=O)O)C(=O)N[C@@H](Cc1ccccc1)C(=O)N[C@H](C(=O)N[C@@H](CCC(N)=O)C(=O)N[C@@H](Cc1c[nH]c2ccccc12)C(=O)N[C@@H](CC(C)C)C(=O)N[C@@H](CC(C)C)C(=O)N[C@@H](CCCCNC(=O)COCCOCCNC(=O)COCCOCCNC(=O)CC[C@H](NC(=O)CC[C@H](NC(=O)CC[C@H](NC(=O)CCCCCCCCCCCCCCCCC(=O)O)C(=O)O)C(=O)O)C(=O)O)C(=O)N[C@H](C(N)=O)[C@@H](C)O)C(C)C [Example 42, N^ε28-[2-[2-[2-[[2-[2-[2-[[(4S)-4-carboxy-4-[[(4S)-4-carboxy-4-[[(4S)-4-carboxy-4-(17-carboxyheptadecanoylamino)butanoyl]amino]butanoyl]amino]butanoyl]amino]ethoxy]ethoxy]acetyl]amino]ethoxy]ethoxy]acetyl]-[Aib2,Leu10,Glu15,Arg20,Glu21,Leu27,Lys28]-Glucagon amide] (H-H[Aib]QGTFTSDLSKYLESRRAREFVQWLLK([AEEA-AEEA-γGlu-γGlu-γGlu-C18 diacid])T-NH2; N-terminus assumed)",38.2
3,"CC(C)C[C@H](NC(=O)[C@H](Cc1ccc(O)cc1)NC(=O)[C@H](CCCCN)NC(=O)[C@H](CO)NC(=O)[C@H](CC(C)C)NC(=O)[C@H](CC(=O)O)NC(=O)[C@H](CO)NC(=O)[C@@H](NC(=O)[C@H](Cc1ccccc1)NC(=O)[C@@H](NC(=O)CNC(=O)[C@H](CCC(N)=O)NC(=O)C1(NC(=O)[C@@H](N)Cc2c[nH]cn2)CCC1)[C@@H](C)O)[C@@H](C)O)C(=O)N[C@@H](CCC(=O)O)C(=O)N[C@@H](CO)C(=O)N[C@@H](CCCNC(=N)N)C(=O)N[C@@H](CCCNC(=N)N)C(=O)N[C@@H](C)C(=O)N[C@@H](CCCNC(=N)N)C(=O)N[C@@H](CCC(=O)O)C(=O)N[C@@H](Cc1ccccc1)C(=O)N[C@H](C(=O)N[C@@H](CCC(N)=O)C(=O)N[C@@H](Cc1c[nH]c2ccccc12)C(=O)N[C@@H](CC(C)C)C(=O)N[C@@H](CC(C)C)C(=O)N[C@@H](CCCCNC(=O)CC[C@H](NC(=O)CC[C@H](NC(=O)COCCOCCNC(=O)COCCOCCNC(=O)CC[C@H](NC(=O)CCCCCCCCCCCCCCCCC(=O)O)C(=O)O)C(=O)O)C(=O)O)C(=O)N[C@H](C(N)=O)[C@@H](C)O)C(C)C [Example 44, N^ε28-[(4S)-4-carboxy-4-[[(4S)-4-carboxy-4-[[2-[2-[2-[[2-[2-[2-[[(4S)-4-carboxy-4-(17-carboxyheptadecanoylamino)butanoyl]amino]ethoxy]ethoxy]acetyl]amino]ethoxy]ethoxy]acetyl]amino]butanoyl]amino]butanoyl]-[Acb2,Leu10,Glu15,Arg20,Glu21,Leu27,Lys28]-Glucagon amide] (H-H[Ac4c]QGTFTSDLSKYLESRRAREFVQWLLK([γGlu-γGlu-AEEA-AEEA-γGlu-C18 diacid])T-NH2; N-terminus assumed)",7.2

# More lines, now with the values ahead:
row,IC50 [nM],SMILES
1,5.6,"CC(C)C[C@H](NC(=O)[C@H](Cc1ccc(O)cc1)NC(=O)[C@H](CCCCN)NC(=O)[C@H](CO)NC(=O)[C@H](CC(C)C)NC(=O)[C@H](CC(=O)O)NC(=O)[C@H](CO)NC(=O)[C@@H](NC(=O)[C@H](Cc1ccccc1)NC(=O)[C@@H](NC(=O)CNC(=O)[C@H](CCC(N)=O)NC(=O)C(C)(C)NC(=O)[C@@H](N)Cc1c[nH]cn1)[C@@H](C)O)[C@@H](C)O)C(=O)N[C@@H](CC(=O)O)C(=O)N[C@@H](C)C(=O)N[C@@H](CCCNC(=N)N)C(=O)N[C@@H](CCCNC(=N)N)C(=O)N[C@@H](C)C(=O)N[C@@H](CCCNC(=N)N)C(=O)N[C@@H](CCC(=O)O)C(=O)N[C@@H](Cc1ccccc1)C(=O)N[C@H](C(=O)N[C@@H](CCC(N)=O)C(=O)N[C@@H](Cc1c[nH]c2ccccc12)C(=O)N[C@@H](CC(C)C)C(=O)N[C@@H](CC(C)C)C(=O)N[C@@H](CCCCNC(=O)CC[C@H](NC(=O)CC[C@H](NC(=O)COCCOCCNC(=O)COCCOCCNC(=O)CC[C@H](NC(=O)CCCCCCCCCCCCCCCCC(=O)O)C(=O)O)C(=O)O)C(=O)O)C(=O)N[C@H](C(N)=O)[C@@H](C)O)C(C)C [Example 43, N^ε28-[(4S)-4-carboxy-4-[[(4S)-4-carboxy-4-[[2-[2-[2-[[2-[2-[2-[[(4S)-4-carboxy-4-(17-carboxyheptadecanoylamino)butanoyl]amino]ethoxy]ethoxy]acetyl]amino]ethoxy]ethoxy]acetyl]amino]butanoyl]amino]butanoyl]-[Aib2,Leu10,Ala16,Arg20,Glu21,Leu27,Lys28]-Glucagon amide] (H-H[Aib]QGTFTSDLSKYLDARRAREFVQWLLK([γGlu-γGlu-AEEA-AEEA-γGlu-C18 diacid])T-NH2; N-terminus assumed)"
2,8.5,"CC(C)C[C@H](NC(=O)[C@H](CC(=O)O)NC(=O)[C@H](CC(C)C)NC(=O)[C@H](Cc1ccc(O)cc1)NC(=O)[C@H](CCCNC(=N)N)NC(=O)[C@H](CO)NC(=O)[C@H](CC(C)C)NC(=O)[C@H](CC(=O)O)NC(=O)[C@H](CO)NC(=O)[C@@H](NC(=O)[C@H](Cc1ccccc1)NC(=O)[C@@H](NC(=O)CNC(=O)[C@H](CCC(N)=O)NC(=O)C1(NC(=O)[C@@H](N)Cc2c[nH]cn2)CCC1)[C@@H](C)O)[C@@H](C)O)C(=O)N[C@@H](CCCNC(=N)N)C(=O)N[C@@H](CCCNC(=N)N)C(=O)N[C@@H](C)C(=O)N[C@@H](CCCNC(=N)N)C(=O)N[C@@H](CC(=O)O)C(=O)N[C@@H](Cc1ccccc1)C(=O)N[C@H](C(=O)N[C@@H](CCC(N)=O)C(=O)N[C@@H](Cc1c[nH]c2ccccc12)C(=O)N[C@@H](CC(C)C)C(=O)N[C@@H](CC(C)C)C(=O)N[C@@H](CCCCNC(=O)CC[C@H](NC(=O)CC[C@H](NC(=O)COCCOCCNC(=O)COCCOCCNC(=O)CC[C@H](NC(=O)CC[C@H](NC(=O)CCCCCCCCCCCCCCCCC(=O)O)C(=O)O)C(=O)O)C(=O)O)C(=O)O)C(=O)N[C@H](C(N)=O)[C@@H](C)O)C(C)C [Example 46, N^ε28-[(4S)-4-carboxy-4-[[(4S)-4-carboxy-4-[[2-[2-[2-[[2-[2-[2-[[(4S)-4-carboxy-4-[[(4S)-4-carboxy-4-(17-carboxyheptadecanoylamino)butanoyl]amino]butanoyl]amino]ethoxy]ethoxy]acetyl]amino]ethoxy]ethoxy]acetyl]amino]butanoyl]amino]butanoyl]-[Acb2,Leu10,Arg12,Leu16,Arg20,Leu27,Lys28]-Glucagon amide] (H-H[Ac4c]QGTFTSDLSRYLDLRRARDFVQWLLK([γGlu-γGlu-AEEA-AEEA-γGlu-γGlu-C18 diacid])T-NH2; N-terminus assumed)"
